Laboratory results reported in US11839873B2, “Valveless fluidic switching flowchip and uses thereof” (Protein Fluidics, Inc., priority 2018, dated 2023).
Residues, ends and D or L forms follow the SMILES beside them. *: point of attachment. Cbz = O=C(OCc1ccccc1)*

Key:
[1] = tested on: HUVECs stimulated with an inflammatory cytokine mixture of TNF-α, IL-1β, and IFN-γ (IL-8, IL-6, MCP-1 upregulation); experiment: Multiparametric HUVEC inflammation assay, secreted cytokines quantified by microfluidic flowchip ELISA; assay type: cell-based, human; conditions: for HUVEC inflammation response as shown by upregulation of IL-8, IL-6, and MCP-1: HUVECs stimulated with TNF-α, IL-1β, IFN-γ mixture for 20 hours at 37° C., concentration dependent effect of compound; for IL-8 expression: HUVECs, compounds added 1 hour prior to inflammatory cytokine mixture, 20 hours at 37° C.
Description: We present results from a multiparametric primary human cell-based assay that uses immunoassays for secreted cytokines to evaluate the effect of different mediators on inflammatory response. Expression of the inflammation markers from primary human umbilical vein endothelial cells (HUVEC) stimulated with inflammation cytokines (TNF-α, IFN-γ, and IL-1β) was quantified by microfluidic-based ELISAs.
The Capture and Primary antibodies are specific to each immunoassay and matched antibody pairs for the MCP-1, IL-8, and IL-6 assays were obtained from a commercial source (Biolegend, San Diego, CA). The buffers and Stop Solution are common to all three assays and were made using materials obtained from Sigma-Aldrich. The SA-HRP (Becton Dickenson, San Diego, CA) and Substrate (Abcam, Cambridge, MA) were also common to each assay. The Capture Ab's were used at a concentration of 10 μg/ml and made by diluting stock Ab in a Coating Buffer solution containing phosphate buffered saline (PBS). The Primary Ab's were used at a concentration of 1 μg/ml and made by diluting stock Ab in an Assay Buffer solution containing PBS, bovine serum albumin (BSA), and Tween20. The Blocking Buffer consisted of BSA diluted in PBS. The SA-HRP was also diluted in Assay Buffer and used at a concentration of 200 ng/ml. The Substrate solution was used as provided.

[2] = tested on: THP-1 cells stimulated with PMA and LPS (IL-8, IL-1β, TNFα secretion); experiment: THP-1 cell cytokine secretion assay, microfluidic flowchip ELISA; assay type: cell-based, human; conditions: for THP-1 cellular inflammation response as shown by upregulation of IL-8: THP-1 cells stimulated with PMA and LPS for 20 hours at 37° C., concentration dependent effect of compound; for cytokine expression: THP-1 cells treated with compound prior to PMA and LPS activation, cytokine secretion quantified
Protocol: THP-1 cells were stimulated with PMA and LPS for 48 hours. […] To evaluate anti-inflammatory compounds, cells were treated with the kinase inhibitors SB202190 and PDTC, and the antibiotic moxifloxacin prior to activation. Then, inhibition of the inflammation responses by those anti-inflammatory compounds was measured by quantifying cytokine secretion.
A microfluidic flowchip was designed containing multiple reservoirs and nodes that accommodate the reagents required to perform an ELISA assay. The assay channel (from Well 3 to Well 9) has a cross-section of 50 μm by 300 μm and length of 25 mm while the other transfer channels have cross-sections of 50 μm by 50 μm. […] The flowchip was made out of COC using injection molding and the bottom surface was sealed with a COC film. Each reservoir has a capacity of ˜30 μl and was filled with 20 μl of the appropriate assay reagent. Assays were performed using a single protocol for all reagents as shown in FIG. 22 carried out in the following order: Capture Antibody (W3), Blocking Buffer (W2), Sample (W1), Primary Antibody (W4), Avidin-HRP (W5), Wash Buffer (Wash), Substrate (W7), and Stop Solution (W6).
The Capture and Primary antibodies are specific to each immunoassay and matched antibody pairs for the IL-8, IL-β, and TNFα assays were obtained from a commercial source (Biolegend, San Diego, CA). The buffers and Stop Solution are common to all three assays and were made using materials obtained from Sigma-Aldrich. The Avidin-HRP (Biolegend, San Diego, CA) and Substrate (Abcam, Cambridge, MA) were also common to each assay. The Capture Ab's were used at a concentration of 10 μg/ml and made by diluting stock Ab in a Coating Buffer solution containing phosphate buffered saline (PBS). The Primary Ab's were used at a concentration of 1 μg/ml and made by diluting stock Ab in an Assay Buffer solution containing PBS, bovine serum albumin (BSA), and Tween20. The Blocking Buffer consisted of BSA diluted in PBS. The Avidin-HRP was also diluted in Assay Buffer and used at a concentration of 200 ng/ml. The Substrate solution was used as provided.
Each fluid transfer step, from a source well to a destination well, followed a fluid transfer rule that included a HP portion to move the majority of fluid through a given channel followed by a longer LP portion to empty the source well without emptying the channel as described previously. The HP portion typically was between 5 and 20 sec while the LP portion typically was between 30 and 300 sec. Incubation in the assay channel was done using a different fluid transfer rule that included successive short HP transfers followed by a delay between transfers to allow interaction of the reagents with the assay channel walls. […]

SMILES	HUVEC inflammation response as shown by upregulation of IL-8, IL-6, and MCP-1 [1]	IL-8 expression [1]	THP-1 cellular inflammation response as shown by upregulation of IL-8 [2]	cytokine expression [2]
N#CC(C#N)=Cc1ccc([N+](=O)[O-])c(O)c1 [AG-126]	clearly diminished	reduced at similar concentrations		
CC(C)C[C@@H](C=O)NC(=O)[C@H](CC(C)C)NC(=O)[C@H](CC(C)C)NC(=O)OCc1ccccc1 [MG-132] (Cbz-Leu-Leu-Leu-aldehyde)	clearly diminished	not affected within the concentration range studied		
S=C(S)N1CCCC1 [PDTC]			clearly diminished	Concentration-dependent decreases
Oc1ccc(-c2nc(-c3ccncc3)c(-c3ccc(F)cc3)[nH]2)cc1 [SB202190]	clearly diminished	reduced at similar concentrations	clearly diminished	Concentration-dependent decreases
